Where a name gives a salt, the structure may show the parent alone. Read-outs that look alike come from different tables or passages of the source.
Target: T1, soluble human BACE (Homo sapiens, UniProt P56817)
T1 construct: cells secreting human recombinant soluble BACE; made in house; conditioned medium
Experiment: BACE activity Cell Free Assay (ELISA of cleaved synthetic APP substrate)
Assay type: biochemical

[1] = Table 6, cell free, soluble human BACE, pH 4.5, 3 μM substrate, read-out: BACE Activity (Cell Free Assay IC50)

T1 sequence (P56817 46-457 limits assumed): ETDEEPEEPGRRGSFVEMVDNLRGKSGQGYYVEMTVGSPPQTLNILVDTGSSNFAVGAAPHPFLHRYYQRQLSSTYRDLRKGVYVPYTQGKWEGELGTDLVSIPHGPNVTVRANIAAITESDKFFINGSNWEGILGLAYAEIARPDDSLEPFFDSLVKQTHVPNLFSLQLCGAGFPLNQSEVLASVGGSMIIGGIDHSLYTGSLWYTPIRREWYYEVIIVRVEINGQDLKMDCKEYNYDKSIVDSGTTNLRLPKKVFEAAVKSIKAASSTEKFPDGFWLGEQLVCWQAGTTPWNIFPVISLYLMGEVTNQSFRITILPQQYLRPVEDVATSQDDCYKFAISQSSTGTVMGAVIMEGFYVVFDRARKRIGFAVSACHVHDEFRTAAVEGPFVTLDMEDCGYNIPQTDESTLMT

SMILES: CC(C)Oc1cccc(CN2CC[C@]3(C=CC(=O)N3CC3CC3)C[C@@H]2C)c1 [Example @93, (5R,7S)-1-(cyclopropylmethyl)-8-(3-isopropoxybenzyl)-7-methyl-1,8-diazaspiro[4.5]dec-3-en-2-one]
- IC50 [1]: 100 to 300 µM

SMILES: CCCN1C(=O)C=C[C@]12CCN(Cc1cccc(OC(C)C)c1)[C@@H](C)C2 [Example @94, (5R,7S)˜8˜(3˜isopropoxybenzyl)˜7˜methyl˜1˜propyl˜1,8-diazaspiro[4.5]dec˜3˜en˜2˜one]
- IC50 [1]: 100 to 300 µM

SMILES: CC(C)Oc1cccc(CN2CC[C@]3(C=CC(=O)N3C3CC3)C[C@@H]2C)c1 [Example @95, (5R,7S)-1-Cyclopropyl-8-(3-isopropoxybenzyl)-7-methyl-1,8-diazaspiro[4.5]dec-3-en-2˜one, trifluoroacetate salt]
- IC50 [1]: 100 to 300 µM

SMILES: CC(C)Oc1cccc(CN2CC[C@]3(CC(C)C(=O)N3c3cccc(F)c3)C[C@@H]2C)c1 (stereo partly drawn) [Example @96, (5R,7S)˜1˜(3˜Fluorophenyl)˜8˜(3˜isopropoxybenzyl)˜3,7˜dimethyl˜1,8˜diazaspiro[4.5]decan˜2˜one, hydrochloride salt]
- IC50: 10 to 100 µM

SMILES: CC(C)Oc1cc(CN2CC[C@]3(C=C(c4ccccc4)C(=O)N3c3cccc(F)c3)C[C@@H]2C)ccc1O [Example @97, (5R,7S)-1-(3-Fluorophenyl)-8-(4-hydroxy-3-isopropoxybenzyl)-7-methyl-3-phenyl-1,8-diazaspiro[4.5]dec-3-en-2-one, hydrochloride salt]
- IC50: 1 to 10 µM

SMILES: CC1=C[C@]2(CCN(Cc3ccc(O)c(OC(C)C)c3)[C@@H](C)C2)N(c2cccc(F)c2)C1=O [Example @98, (5R,7S)-1-(3-Fluorophenyl)-8-(4-hydroxy-3-isopropoxybenzyl)-3,7-dimethyl-1,8-diazaspiro[4.5]dec-3-en-2-one, hydrochloride salt]
- IC50: 0.001 to 1 µM
